Assay results: PubChem BioAssay AID1645868 (Buhrlage Lab, Dana-Farber Cancer Institute and Novartis …, 2021)
Calls of active or inactive are those of the source.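 The calls were made as follows: active = maximal percent inhibition of the deubiquitinase OTUD3 of at least 30% across the tested doses; inactive = the rest.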

target: OTU domain-containing protein 3 (Homo sapiens) (UniProt Q5T2D3); test: Validation of screening hits, potency titration, in vitro enzymatic, OTU domain-containing protein 3 DUB inhibitors (AID 1645868); settings: purified OTUD3, ubiquitin-rhodamine cleavage fluorescence, 2 h
Sequence (Q5T2D3 whole entry, looked up, the tested form may be a part): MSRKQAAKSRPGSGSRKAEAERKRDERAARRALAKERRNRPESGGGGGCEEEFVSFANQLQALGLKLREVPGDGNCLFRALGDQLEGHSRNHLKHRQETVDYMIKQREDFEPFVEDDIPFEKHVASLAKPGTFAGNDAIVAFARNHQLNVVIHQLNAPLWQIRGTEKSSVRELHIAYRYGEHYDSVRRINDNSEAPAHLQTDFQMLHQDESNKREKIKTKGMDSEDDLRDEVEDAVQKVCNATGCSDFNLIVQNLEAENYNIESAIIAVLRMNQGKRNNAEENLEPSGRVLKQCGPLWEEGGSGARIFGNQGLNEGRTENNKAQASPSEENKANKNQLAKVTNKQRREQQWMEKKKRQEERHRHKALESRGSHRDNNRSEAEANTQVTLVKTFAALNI

| Compound | IC50 |
| --- | --- |
| CC1(C(=O)NCc2ccccc2)Cn2c(cc3ccccc32)C(=O)N1Cc1ccccc1 (centres undefined) | > 50 µM (inactive) |
| Fc1ccc(CSc2nnc(-c3ccccn3)n2Cc2ccco2)cc1 | > 50 µM (inactive) |
| Cc1sc2nc(CN3CCCC3)nc(NCCc3ccc(Cl)cc3)c2c1C | > 50 µM (inactive) |
| COc1ccc2nc(Nc3nc(-c4cnc(N5CCOCC5)nc4C)cc(=O)[nH]3)nc(C)c2c1 | > 50 µM (inactive) |
| C/C=C1/C2=CCCN3C(=O)O[C@H]([C@H]1O)[C@H]23 | > 50 µM (inactive) |
| c1coc(CNc2nc(Nc3cccc4ccccc34)nc3ccccc23)c1 | > 50 µM (inactive) |
| COc1ccc(Cn2c(SCc3ccc(C(=O)NCCc4ccccc4)cc3)nc3ccncc32)cc1 | > 50 µM (inactive) |
| COc1ccccc1CNC(=O)c1ccccc1OCc1ccccc1Cl | > 50 µM (inactive) |
| COc1ccc(CC(=O)Nc2nc(-c3ccco3)c(-c3ccco3)s2)cc1 | > 50 µM (inactive) |
| CCOC(=O)c1sc2nc(CC(=O)OC)nc(NCc3ccco3)c2c1C | > 50 µM (inactive) |
| Cc1ccc(C)c(-n2c(N)c(C(=O)NCCc3ccccc3)c3nc4ccccc4nc32)c1 | > 50 µM (inactive) |
| Fc1cccc(Cn2cc(-c3noc(-c4ccncc4)n3)nn2)c1 | > 50 µM (inactive) |
| COc1ccc(COC(=O)C2=C(C)NC(=O)CC2c2cccc([N+](=O)[O-])c2)cc1 (centres undefined) | > 50 µM (inactive) |
| O=C(CSc1nnc2n1CCCCC2)Nc1ccc2[nH]c(=O)[nH]c2c1 | > 50 µM (inactive) |
| O=C(O)CCCCCN1C(=O)CC(c2ccc(Cl)cc2)CC1=O | 46.9 µM |
| CC1CCCN(S(=O)(=O)c2cc3cc(F)ccc3oc2=O)C1 (centres undefined) | > 50 µM (inactive) |
| COc1cc(NC(=O)Cn2c(=O)n(-c3ccc(CC(=O)NC4CCCC4)cc3)c(=O)c3ccccc32)cc(OC)c1 | > 50 µM (inactive) |
| Cc1ccc(NCc2cc3c(C(C)(C)C)nn(-c4ccc(Cl)cc4)c3[nH]c2=O)cc1 | 33.5 µM |

| Compound | IC50 |
| --- | --- |
| CC1(C)CC(=O)C2=C(C1)Nc1ccccc1N(C(=O)C(F)(F)F)C2c1cccs1 (centres undefined) | > 50 µM (inactive) |
| O=C(Nc1cccc(F)c1)C1CCCN(S(=O)(=O)N2CCCCCC2)C1 (centres undefined) | > 50 µM (inactive) |
| Cc1nnc(Sc2cc(C(=O)NCCN3CCCC3)c3ccccc3n2)s1 | > 50 µM (inactive) |
| CC1CCc2c(sc3ncnc(NC4CCN(CC(N)=O)CC4)c23)C1 (centres undefined) | > 50 µM (inactive) |
| CO/C1=C\C(C)=C/[C@@H](C)[C@@H](O)[C@@H](C)C/C(C)=C/C=C/[C@H](OC)[C@@H]([C@@H](C)[C@@H](O)[C@H](C)[C@@]2(O)C[C@@H](OC(=O)/C=C/C(N)=O)[C@H](C)[C@@H](C(C)C)O2)OC1=O | > 50 µM (inactive) |
| Cc1cc(C(=O)COC(=O)c2ccc[nH]c2=O)c(C)n1-c1ccc2c(c1)OCO2 | > 50 µM (inactive) |
| Cc1cc(C)c(NC(=O)CSc2nc3nccnc3c(=O)n2Cc2ccccc2Cl)c(C)c1 | > 50 µM (inactive) |
| O=S(=O)(Cc1nnc(-c2ccccc2C(F)(F)F)o1)c1ccc(Cl)cc1 | > 50 µM (inactive) |
| COc1ccc(C2/C(=C(\O)c3ccccc3)C(=O)C(=O)N2c2nc3ccc(F)cc3s2)cc1 (centres undefined) | 33.8 µM |
| CCOc1cccc2sc(N(Cc3cccnc3)C(=O)CCc3ccccc3)nc12 | > 50 µM (inactive) |
| COc1ncccc1CN1CCn2c(Cn3cncn3)cnc2C1C (centres undefined) | > 50 µM (inactive) |
| Cc1nc(C(=O)N[C@@H](C)C(=O)NCc2ccc3c(c2)OCO3)cc2c1[nH]c1ccccc12 | 37.8 µM |
| CN1C(=O)[C@@]23C[C@]4([C@@]56C[C@]78SS[C@](CO)(C(=O)N7[C@@H]5Nc5ccccc56)N(C)C8=O)c5ccccc5N[C@@H]4N2C(=O)[C@]1(CO)SS3 | > 50 µM (inactive) |
| CC(C)=CCC/C(C)=C/C[C@]1(O)C(=O)c2cc(O)cc(O)c2C(=O)[C@@]1(Cl)CC=C(C)C | > 50 µM (inactive) |
| CCOc1cc(C2C3=C(CC(C)(C)CC3=O)Nc3onc(C)c32)ccc1O (centres undefined) | > 50 µM (inactive) |
| CC(C)(C)c1cc(C[C@@H]2C[C@H](NC(=O)N3CCOCC3)C2(C)C)no1 | > 50 µM (inactive) |
| O=C(Cn1c(=O)n(Cc2ccco2)c(=O)c2ccc(C(=O)NC3CCCC3)cc21)NCc1ccco1 | > 50 µM (inactive) |

Next, values leading:

| IC50 | Compound |
| --- | --- |
| > 50 µM (inactive) | CCc1ccccc1NC(=O)c1cc(-c2ccccn2)n[nH]1 |
| > 50 µM (inactive) | Cc1ccc(C)c(-c2cc3c(=O)n(Cc4noc(CN5CCCCC5)n4)ccn3n2)c1 |
| > 50 µM (inactive) | Cc1ccc2c(c1)N(Cc1nc(-c3ccc(F)cc3)no1)C(=O)CO2 |
| > 50 µM (inactive) | O=C(COc1ccc(S(=O)(=O)N2CCOCC2)cc1)N1CCC(Cc2ccccc2)CC1 |
| 19.7 µM | CCN(c1ccc(NC(=O)CSc2nnc(-c3ccccc3)n2-c2ccc(OC)c(OC)c2)cc1)C(C)C |
| > 50 µM (inactive) | CC1CCCCN1CCCNC(=O)c1ccc(N2CCc3ccccc32)s1 (centres undefined) |
| > 50 µM (inactive) | Cc1nc2cc(C(=O)NCCC3=CCCCC3)ccc2n1-c1cccc(F)c1 |
| > 50 µM (inactive) | CN1CCN(C(=O)c2ccn(-c3ccc4ccc(-c5cnn(C)c5)cn34)n2)CC1 |
| > 50 µM (inactive) | Cc1ccc2c(c1)N=C(c1ccc([N+](=O)[O-])cc1)CO2 |
| > 50 µM (inactive) | CC1CCN(c2cc(-n3cnc(C(=O)N4CCCC(C)C4)c3)ncn2)CC1 (centres undefined) |
| > 50 µM (inactive) | Cc1csc2ncc(C(=O)N3CCN(c4ccccc4F)CC3)c(=O)n12 |
| > 50 µM (inactive) | Cc1sc(NC(=O)CN2CCc3ccccc3C2)nc1-c1ccc2c(c1)CCN2C(=O)C1CCCCC1 |
| > 50 µM (inactive) | COc1cccc(-n2c(=O)[nH]c3c(C(N)=O)nc(-c4ccc(OCc5ccccc5)cc4)nc32)c1 |
| 28.6 µM | CCc1ccc2[nH]c3c(c(=O)c2c1)CN(CC(=O)NCc1ccc2c(c1)OCO2)CC3 |
| 21.1 µM | COc1cc(OC)cc(-n2c(=O)c3sccc3n(CC(=O)Nc3ccc(C)cc3)c2=O)c1 |
| > 50 µM (inactive) | Cc1cc(-c2cnc(N(C)C)nc2-c2ccc(CNC(=O)Cc3ccc(F)cc3)cc2)on1 |
| 33.5 µM | CC(CCc1ccccc1)NC(=O)Cn1c(=O)c2cccn2c2ccccc21 (centres undefined) |
| > 50 µM (inactive) | Cc1ccc(NC(=O)c2c3c(nc4ccccc24)CCCCC3)c(C)c1 |
| > 50 µM (inactive) | COc1ccc(Cl)cc1-n1nnc(C(=O)N2CCc3ccccc3C2)c1C |
| > 50 µM (inactive) | COc1ccc(OC)c(-c2cc(C(=O)Nc3c(C)nn(Cc4ccccc4)c3C)no2)c1 |
| > 50 µM (inactive) | Cc1cccc(-n2cnc(C(=O)NCc3ccc(F)cc3)c2)n1 |
| > 50 µM (inactive) | COc1ccccc1OCC(=O)Nc1ccc2c(c1)CCC(=O)N2Cc1ccccc1 |
| > 50 µM (inactive) | CN1C(=O)c2cc(NC(=O)c3ccccc3Cl)ccc2Oc2ccccc21 |
| > 50 µM (inactive) | COC(=O)c1ccc(NC(=O)CSc2nnc(-c3ccc(O)cc3)n2Cc2ccco2)cc1 |
| > 50 µM (inactive) | Cc1nc(-c2ccc(NC(=O)N3CCN(c4ccccn4)CC3)cc2)no1 |
| 18.9 µM | Cc1ccc(-c2nc(Cn3cnc4ccccc4c3=O)cs2)cc1 |
| > 50 µM (inactive) | CCC(C)Oc1cccc(C(=O)Nc2ccc(CN3CCOCC3)cc2)c1 (centres undefined) |
| > 50 µM (inactive) | Cn1c(=O)cc(SCC(=O)NC2CCN(Cc3ccccc3)CC2)c2ccc(Cl)cc21 |
| 12.1 µM | CCn1cc2c(n1)c(=O)n(Cc1ccccc1)c(=O)n2CC(=O)Nc1ccc(OC)cc1 |
